# Calls of active or inactive are those of the source. The rule behind the calls is not given here.
# Columns and labels:
# Diaporthe ampelina [1] = assay: Antifungal activity against Diaporthe ampelina infected grape plant assessed as disease severity at internodes at 0.12 kg a.i./ha incubated for 20 hr prior to treatment with 16 hr wetness period and 4 hr drying time measured after 4 weeks in presence of regulaid (reference value: 7.3%); format: functional
# Diaporthe ampelina [2] = assay: Antifungal activity against Diaporthe ampelina infected grape plant assessed as decrease in lesions on leaf at 0.5 kg/ha incubated for 24 hr prior to treatment with 20 hr wetness period followed by 4 hr drying period measured after 4 weeks relative to control in presence of regulaid; format: functional, organism-based
# Diaporthe ampelina [3] = assay: Antifungal activity against Diaporthe ampelina infected grape plant assessed as disease severity at internodes at 0.5 kg/ha incubated for 24 hr prior to treatment with 20 hr wetness period followed by 4 hr drying period measured after 4 weeks in presence of regulaid (reference value: 3.2%); format: functional
# Diaporthe ampelina [4] = assay: Antifungal activity against Diaporthe ampelina infected grape plant assessed as decrease in lesions on leaf at 0.12 kg a.i./ha treated 3 to 6 hr prior to inoculation followed by 24 hr wetness period measured after 4 weeks relative to control in presence of regulaid; format: functional, organism-based
# Diaporthe ampelina [5] = assay: Antifungal activity against Diaporthe ampelina infected grape plant assessed as decrease in lesions on leaf at 0.12 kg a.i./ha treated 3 to 6 hr prior to inoculation followed by 24 hr wetness period measured after 4 weeks relative to control; format: functional, organism-based
# Diaporthe ampelina [6] = assay: (§1) Antifungal activity against Diaporthe ampelina infected grape plant assessed as disease severity at internodes at 0.12 kg a.i./ha incubated for 48 hr prior to treatment with 24 hr wetness period followed by 24 hr of drying period measured after 4 weeks in presence of regulaid (reference value: 12.2%); format: functional
# Diaporthe ampelina [7] = assay: Antifungal activity against Diaporthe ampelina infected grape plant assessed as re-isolation of mycelium from infected vines at 0.12 kg a.i./ha treated for weeks in presence of regulaid followed by inoculation on medium measured after 72 hr (reference value: 62.5%); format: functional
# Diaporthe ampelina [8] = assay: Antifungal activity against Diaporthe ampelina infected grape plant assessed as disease severity at internodes at 0.12 kg a.i./ha incubated for 24 hr prior to treatment with 20 hr wetness period followed by 4 hr drying period measured after 4 weeks in presence of regulaid (reference value: 4.7%); format: functional
# Diaporthe ampelina [9] = assay: Antifungal activity against Diaporthe ampelina infected grape plant assessed as disease severity at internodes at 0.12 kg a.i./ha treated 3 to 6 hr prior to inoculation followed by 24 hr wetness period measured after 4 weeks (reference value: 2.6%); format: functional
# Diaporthe ampelina [10] = assay: Antifungal activity against Diaporthe ampelina infected grape plant assessed as decrease in lesions on leaf at 0.12 kg a.i./ha incubated for 48 hr prior to treatment with 24 hr wetness period followed by 24 hr of drying period measured after 4 weeks relative to control in presence of regulaid; format: functional, organism-based
# Diaporthe ampelina [11] = assay: Antifungal activity against Diaporthe ampelina infected grape plant assessed as disease severity at internodes at 0.12 kg a.i./ha treated 3 to 6 hr prior to inoculation followed by 24 hr wetness period measured after 4 weeks in presence of regulaid (reference value: 2.9%); format: functional
# Diaporthe ampelina [12] = assay: Antifungal activity against Diaporthe ampelina infected grape plant assessed as decrease in lesions on leaf at 0.12 kg a.i./ha incubated for 24 hr prior to treatment with 20 hr wetness period followed by 4 hr drying period measured after 4 weeks relative to control in presence of regulaid; format: functional, organism-based
# Diaporthe ampelina [13] = assay: Antifungal activity against Diaporthe ampelina infected grape plant assessed as decrease in lesions on leaf at 0.12 kg a.i./ha incubated for 20 hr prior to treatment with 16 hr wetness period and 4 hr drying time measured after 4 weeks relative to control in presence of regulaid; format: functional, organism-based
# Diaporthe ampelina [14] = assay: Antifungal activity against Diaporthe ampelina infected grape plant assessed as decrease in lesions on leaf at 1.19 kg a.i./ha treated 3 to 6 hr prior to inoculation followed by 24 hr wetness period measured after 4 weeks relative to control in presence of regulaid; format: functional, organism-based
# Diaporthe ampelina [15] = assay: Antifungal activity against Diaporthe ampelina infected grape plant assessed as decrease in lesions on leaf at 1.19 kg a.i./ha treated 3 to 6 hr prior to inoculation followed by 24 hr wetness period measured after 4 weeks relative to control; format: functional, organism-based
# Diaporthe ampelina [16] = assay: Antifungal activity against Diaporthe ampelina infected grape plant assessed as decrease in lesions on leaf at 2.6 kg/ha incubated for 24 hr prior to treatment with 20 hr wetness period followed by 4 hr drying period measured after 4 weeks relative to control in presence of stylet oil; format: functional, organism-based
# Diaporthe ampelina [17] = assay: Antifungal activity against Diaporthe ampelina infected grape plant assessed as decrease in lesions on leaf at 1.19 kg a.i./ha incubated for 20 hr prior to treatment with 16 hr wetness period and 4 hr drying time measured after 4 weeks relative to control in presence of stylet oil; format: functional, organism-based
# Diaporthe ampelina [18] = assay: Antifungal activity against Diaporthe ampelina infected grape plant assessed as re-isolation of mycelium from infected vines at 1.19 kg a.i./ha treated for weeks in presence of regulaid followed by inoculation on medium measured after 72 hr (reference value: 62.5%); format: functional
# Diaporthe ampelina [19] = assay: Antifungal activity against Diaporthe ampelina infected grape plant assessed as disease severity at internodes at 1.19 kg a.i./ha incubated for 24 hr prior to treatment with 20 hr wetness period followed by 4 hr drying period measured after 4 weeks in presence of stylet oil(reference value: 4.7%); format: functional
# Diaporthe ampelina [20] = assay: Antifungal activity against Diaporthe ampelina infected grape plant assessed as disease severity at internodes at 2.6 kg/ha incubated for 24 hr prior to treatment with 20 hr wetness period followed by 4 hr drying period measured after 4 weeks in presence of stylet oil(reference value: 3.2%); format: functional
# Diaporthe ampelina [21] = assay: Antifungal activity against Diaporthe ampelina infected grape plant assessed as disease severity at internodes at 1.19 kg a.i./ha incubated for 20 hr prior to treatment with 16 hr wetness period and 4 hr drying time measured after 4 weeks in presence of stylet oil(reference value: 7.3%); format: functional
# Diaporthe ampelina [22] = assay: Antifungal activity against Diaporthe ampelina infected grape plant assessed as disease severity at internodes at 1.19 kg a.i./ha treated 3 to 6 hr prior to inoculation followed by 24 hr wetness period measured after 4 weeks in presence of stylet-oil(reference value: 2.9%); format: functional
# Diaporthe ampelina [23] = assay: Antifungal activity against Diaporthe ampelina infected grape plant assessed as re-isolation of mycelium from infected vines at 1.19 kg a.i./ha treated for weeks in presence of stylet oil followed by inoculation on medium measured after 72 hr (reference value: 62.5%); format: functional
# Diaporthe ampelina [24] = assay: Antifungal activity against Diaporthe ampelina infected grape plant assessed as disease severity at internodes at 1.19 kg a.i./ha incubated for 24 hr prior to treatment with 20 hr wetness period followed by 4 hr drying period measured after 4 weeks in presence of regulaid (reference value: 4.7%); format: functional
# Diaporthe ampelina [25] = assay: Antifungal activity against Diaporthe ampelina infected grape plant assessed as decrease in lesions on leaf at 1.19 kg a.i./ha incubated for 24 hr prior to treatment with 20 hr wetness period followed by 4 hr drying period measured after 4 weeks relative to control in presence of regulaid; format: functional, organism-based
# Diaporthe ampelina [26] = assay: Antifungal activity against Diaporthe ampelina infected grape plant assessed as disease severity at internodes at 2.6 kg/ha incubated for 24 hr prior to treatment with 20 hr wetness period followed by 4 hr drying period measured after 4 weeks in presence of regulaid (reference value: 3.2%); format: functional
# Diaporthe ampelina [27] = assay: as §1, with “1.19” for “0.12”, “stylet oil” for “regulaid”; format: functional
# Diaporthe ampelina [28] = assay: Antifungal activity against Diaporthe ampelina infected grape plant assessed as disease severity at internodes at 1.19 kg a.i./ha treated 3 to 6 hr prior to inoculation followed by 24 hr wetness period measured after 4 weeks in presence of regulaid (reference value: 2.9%); format: functional
# Diaporthe ampelina [29] = assay: Antifungal activity against Diaporthe ampelina infected grape plant assessed as decrease in lesions on leaf at 1.19 kg a.i./ha incubated for 48 hr prior to treatment with 24 hr wetness period followed by 24 hr of drying period measured after 4 weeks relative to control in presence of regulaid; format: functional, organism-based
# Diaporthe ampelina [30] = assay: as §1, with “1.19” for “0.12”; format: functional
# Diaporthe ampelina [31] = assay: Antifungal activity against Diaporthe ampelina infected grape plant assessed as decrease in lesions on leaf at 1.19 kg a.i./ha treated 3 to 6 hr prior to inoculation followed by 24 hr wetness period measured after 4 weeks relative to control in presence of stylet oil; format: functional, organism-based
# Diaporthe ampelina [32] = assay: Antifungal activity against Diaporthe ampelina infected grape plant assessed as decrease in lesions on leaf at 1.19 kg a.i./ha incubated for 48 hr prior to treatment with 24 hr wetness period followed by 24 hr of drying period measured after 4 weeks relative to control in presence of stylet oil; format: functional, organism-based
# Diaporthe ampelina [33] = assay: Antifungal activity against Diaporthe ampelina infected grape plant assessed as disease severity at internodes at 1.19 kg a.i./ha incubated for 20 hr prior to treatment with 16 hr wetness period and 4 hr drying time measured after 4 weeks in presence of regulaid (reference value: 7.3%); format: functional
# Diaporthe ampelina [34] = assay: Antifungal activity against Diaporthe ampelina infected grape plant assessed as decrease in lesions on leaf at 1.19 kg a.i./ha incubated for 24 hr prior to treatment with 20 hr wetness period followed by 4 hr drying period measured after 4 weeks relative to control in presence of stylet oil; format: functional, organism-based
# Diaporthe ampelina [35] = assay: Antifungal activity against Diaporthe ampelina infected grape plant assessed as disease severity at internodes at 1.19 kg a.i./ha treated 3 to 6 hr prior to inoculation followed by 24 hr wetness period measured after 4 weeks (reference value: 2.6%); format: functional
# Diaporthe ampelina [36] = assay: Antifungal activity against Diaporthe ampelina infected grape plant assessed as decrease in lesions on leaf at 1.19 kg a.i./ha incubated for 20 hr prior to treatment with 16 hr wetness period and 4 hr drying time measured after 4 weeks relative to control in presence of regulaid; format: functional, organism-based
# Diaporthe ampelina [37] = assay: Antifungal activity against Diaporthe ampelina infected grape plant assessed as decrease in lesions on leaf at 2.6 kg/ha incubated for 24 hr prior to treatment with 20 hr wetness period followed by 4 hr drying period measured after 4 weeks relative to control in presence of regulaid; format: functional, organism-based
structure (smiles),measurement,setting,value
CCCCC(C#N)(Cn1cncn1)c1ccc(Cl)cc1 (configuration not stated) [MYCLOBUTANIL],Activity,Diaporthe ampelina [1],5.2%
same,Activity,Diaporthe ampelina [2],inactive
same,Activity,Diaporthe ampelina [3],3.1%
same,Activity,Diaporthe ampelina [4],inactive
same,Activity,Diaporthe ampelina [5],inactive
same,Activity,Diaporthe ampelina [6],6.7%
same,Activity,Diaporthe ampelina [7],68.7%
same,Activity,Diaporthe ampelina [8],3.5%
same,Activity,Diaporthe ampelina [9],0.6%
same,Activity,Diaporthe ampelina [10],inactive
same,Activity,Diaporthe ampelina [11],0.1%
same,Activity,Diaporthe ampelina [12],inactive
same,Activity,Diaporthe ampelina [13],inactive
COC(=O)NC(=S)Nc1ccccc1NC(=S)NC(=O)OC [THIOPHANATE METHYL],Activity,Diaporthe ampelina [14],Active
same,Activity,Diaporthe ampelina [15],Active
same,Activity,Diaporthe ampelina [16],inactive
same,Activity,Diaporthe ampelina [17],inactive
same,Activity,Diaporthe ampelina [18],37.1%
same,Activity,Diaporthe ampelina [19],0.7%
same,Activity,Diaporthe ampelina [20],1.8%
same,Activity,Diaporthe ampelina [21],7.5%
same,Activity,Diaporthe ampelina [22],2%
same,Activity,Diaporthe ampelina [23],41.1%
same,Activity,Diaporthe ampelina [24],3.3%
same,Activity,Diaporthe ampelina [25],inactive
same,Activity,Diaporthe ampelina [26],0.7%
same,Activity,Diaporthe ampelina [27],5.1%
same,Activity,Diaporthe ampelina [28],1%
same,Activity,Diaporthe ampelina [29],inactive
same,Activity,Diaporthe ampelina [30],3.8%
same,Activity,Diaporthe ampelina [31],Active
same,Activity,Diaporthe ampelina [32],inactive
same,Activity,Diaporthe ampelina [33],4%
same,Activity,Diaporthe ampelina [34],inactive
same,Activity,Diaporthe ampelina [35],0.1%
same,Activity,Diaporthe ampelina [36],inactive
same,Activity,Diaporthe ampelina [37],inactive

# — ChEMBL document CHEMBL3046026, “Evaluation of the curative and protectant activity of fungicides and fungicide-adjuvant mixtures on Phomopsis cane and leaf spot of grape: A controlled environment study” (2007)
